Data from patent publication US20060079558A1, “R-isomer of 2-{2[N-(2-indanyl)-N-phenylamino]ethyl}piperidine and other dermal anesthetics” (Bridge Pharma. Inc., priority 2004, published 2006).
Entries after “also recorded” stand apart in the source; their conditions may differ.

Columns and labels:
[1] = test system: skin on the back of male or female guinea pigs; assay: Dermal anesthetic activity, pin-prick method after dermal application; assay type: in vivo; conditions: for onset of dermal anesthetic activity (onset time): comparison of enantiomers and racemate, in words; for dermal anesthetic effects (anesthetic score): score after 30 min application, FIG. 1, 10% solution of base in water/DMSO, maximum = 6
Description: Approximately 18-24 hours before each experiment, the skin on the back of male or female guinea pigs was shaved and depilated with a commercially available hair remover. The anesthetic action of each agent following dermal application was determined using a “pin-prick” method as described by Aberg (Acta Pharmacol Toxicol, 1972, 31: 273-286). Before and at various intervals after treatment, the area of the skin was tested for the presence or absence of a skin twitch in response to six standardized dermal probings with a pointed metal “algesimeter” at a predetermined maximum load of 10 grams. The average number of probings not producing a skin twitch response was designated as the “anesthetic score”. In this test system no response to six stimuli represents a “maximal anesthetic activity”. In the present calculations, the dermal anesthetic activity was calculated from the time of removal of the test article formulation from the skin until skin twitch responses to all but one pinprick were identified. In experiments on the dermal anesthetic activity, a single area of skin 1 inch square was marked off on the middle of the back of each animal. This area was covered by a 1 inch square, 16 layer thick gauze pad onto which was deposited 0.45 ml of a 10% solution of the test agent dissolved in a mixture of water and DMSO. The gauze pad was covered with a 1.5 inch square sheet of Saran Wrap™ which was attached to the surrounding skin with tape. The entire area was then covered by wrapping an elastic bandage around the trunk of the animal. After a predetermined duration of treatment, the coverings were removed and the skin assessed for the presence of anesthesia as described above. Dermal anesthesia tests were performed at ten-minute intervals to measure onset time and duration of dermal anesthetic activity; comparisons were made with reference compounds and vehicle. All test compounds were in the base form and dissolved in DMSO/water when tested for dermal anesthesia.

[2] = Comparison studies of dermal toxicity; assay type: in vivo; conditions: in words
[3] = cited from earlier work

SMILES | onset of dermal anesthetic activity (onset time) [1] | dermal anesthetic effects (anesthetic score) [1] | dermal toxicity [2] | local anesthetic activity ([3]; racemate, U.S. Pat. No. 6,413,987) | tissue toxicity ([3]; racemic mixture, as described in U.S. Pat. No. 6,413,987)
c1ccc(N(CCC2CCCCN2)C2Cc3ccccc3C2)cc1 (stereo not shown) [S-LAC-34, reference compound] | longer onset of action | 2.6 | – | – | –
c1ccc(N(CC[C@H]2CCCCN2)C2Cc3ccccc3C2)cc1 [R-LAC-34, R-2-{2-[N-(2-indanyl)-N-phenylamino]ethyl}piperidine] | shorter onset of action than both the racemate and the S-isomer; also recorded: significantly shorter; also recorded: shorter onset time than the racemic mixture or the S-isomer | 3.5 | low dermal toxicity | – | –
c1ccc(N(CCC2CCCCN2)C2Cc3ccccc3C2)cc1 (racemic) [RS-LAC-34, 2-{2-[N-(2-indanyl)-N-phenylamino]ethyl}piperidine] | – | – | – | active local anesthetic compound | little, if any, tissue toxicity
